Test [1] concerns Candida albicans ATCC 10231. The experiment in a line: Synergistic antimicrobial activity as MIC (96-well microplate, optical density at 620 nm), Candida albicans. In kind it is cell-based. From the text:
(§1) FIC Index=(MICa with B/MICa)+(MICb with A/MICb)
(§2) with: • MICa with B: minimum concentration of product A in the combination A+B which makes it possible to obtain an inhibitory effect • MICb with A: minimum concentration of product B in the combination A+B which makes it possible to obtain an inhibitory effect. • MICa: minimum inhibitory concentration of product A alone. • MICb: minimum inhibitory concentration of product B alone.
(§3) As regards the combinations tested, MICa with b and MICb with a are the respective concentrations of A and of B in the combinations which make it possible to obtain a microbial growth percentage of less than or equal to 20%.
(§4) When the FIC index value is less than or equal to 1, it is considered that the combination of test compounds has a synergistic effect.
The microbial strain Candida albicans ATCC 10231 and a double-concentration Sabouraud broth liquid culture medium were used.
(§5) A 96-well microplate and an […] of 32.5° C. are used.
(§6) The incubation time of the microplate is: • from 18 to 24 h under aerobic conditions for Candida albicans ATCC 10231; • from 24 to 30 h under aerobic conditions for Aspergillus niger ATCC 6275.
(§7) A 10% (weight/volume) stock solution was prepared by mixing 1 g of compound in 9 ml of aqueous 1% o agar solution. Successive dilutions were made with the 1% o agar solution. • Test of compounds A and B alone
(§8) 50 μl of each of the daughter solutions obtained containing compound A or B are added to the microplate wells. 100 μl of Sabouraud liquid nutrient broth inoculated with the strain Aspergillus niger and 50 μl of aqueous 1% o agar solution are also added thereto. • Test of compounds A and B as a mixture
(§9) 50 μl of each of the daughter solutions obtained containing compound A and 50 μl of each of the daughter solutions obtained containing compound B are added to the microplate wells. 100 μl of Sabouraud liquid nutrient broth inoculated at double concentration with the strain Aspergillus niger are also added thereto.
The test as described above (tests, absorbance control and growth control) was performed again to test the combination A and B on the Candida albicans strain.

The subject of test [2] is Aspergillus niger ATCC 6275. The test can be described thus: Synergistic antimicrobial activity as MIC (96-well microplate, optical density at 620 nm), Aspergillus niger. Format: cell-based.
Source text: as §1, §2, §3, §4
The microbial strain Aspergillus niger ATCC 6275, and a double-concentration Sabouraud broth liquid culture medium supplemented with polyoxyethylenated (20 OE) sorbitan monopalmitate (Tween 40 from Croda) and Phytagel© BioReagent were used (i.e. a mixture of 5 g of Phytagel+0.6 g Tween 40+60 g of Sabouraud broth).
as §5, §6, §7, §8, §9
A positive microbial growth control was also prepared. The positive microbial growth control corresponds to a mixture of 100 μl of aqueous 1% o agar solution with 100 μl of Sabouraud liquid nutrient broth inoculated at double concentration with the strain Aspergillus niger in the absence of compounds A and B.
An absorbance control was performed in parallel on compounds A and B alone. This control corresponds to 100 μl of double concentration sterile Sabouraud liquid nutrient broth+100 μl of double concentration compound A or B.
In the three cases (absorbance control, growth control and test), the final volume present in each of the microplate wells is 200 μl.
In the two cases (test and control), the inoculum represents the concentration of the Aspergillus niger strain present in the final volume of the wells (200 μl) and is between 2 and 6×10^5 cfu/ml of Aspergillus niger.

Setting [3] is: Aspergillus niger, growth <= 20%.

As to `CCOc1cc(CCC(C)=O)ccc1O` [A, 4-(3-ethoxy-4-hydroxyphenyl)butan-2-one], the microbial growth percentage in test [1] (0.025 A, 0 B2 (weight %)) was 81%; in test [1] (0.025 A, 0 B3 (weight %)), 78%; in test [1] (0.05 A, 0 B2 (weight %)), 60%; in test [1] (0.05 A, 0 B3 (weight %)) it was 61%; in test [1] (0.1 A, 0 B2 (weight %)) it was 27%; in test [1] (0.1 A, 0 B3 (weight %)), 25%. Moreover, the microbial growth percentage is reported as 4% in test [1] (0.2 A, 0 B2 (weight %)); 3% in test [1] (0.2 A, 0 B3 (weight %)); 42% in test [2] (0.025 A, 0 B1 (weight %)); 39% in test [2] (0.025 A, 0 B3 (weight %)); 25% in test [2] (0.05 A, 0 B1 (weight %)); 32% in test [2] (0.05 A, 0 B3 (weight %)). Moreover, the microbial growth percentage came out at 10% in test [2] (0.1 A, 0 B1 (weight %)) and 12% in test [2] (0.1 A, 0 B3 (weight %)). In test [1] (A alone, Candida albicans, test series with B2, growth <= 20%), the “% MIC A” value amounted to 0.2%. Besides, the “% MIC of A alone” value in test [1] (Candida albicans, test series with B3, growth <= 20%) is on record as 0.2%; in test [2] (Aspergillus niger, test series with B1, growth <= 20%), 0.1%; in test [2] (Aspergillus niger, test series with B3, growth <= 20%) it was 0.1%.

For the compound `CCCCCCCCC(O)CO` (centres unmarked) [B3, 1,2-decanediol], the microbial growth percentage in test [1] (0 A, 0.0125 B3 (weight %)) was determined as 45%; in test [1] (0 A, 0.025 B3 (weight %)), 3%; in test [2] (0 A, 0.0125 B3 (weight %)), 42%; in test [2] (0 A, 0.025 B3 (weight %)) it was 10%. Further, the “% MIC of B3 alone” value in test [1] (Candida albicans, growth <= 20%) is listed as 0.025%; in test [2] (setting [3]) it was 0.025%.

With `CCCCCCC(O)CO` (centres unmarked) [B2, 1,2-octanediol], the microbial growth percentage was 79% in test [1] (0 A, 0.025 B2 (weight %)); 60% in test [1] (0 A, 0.05 B2 (weight %)); 23% in test [1] (0 A, 0.1 B2 (weight %)); 0% in test [1] (0 A, 0.2 B2 (weight %)). Moreover, the “MIC B2” value in test [1] (B2 alone, Candida albicans, growth <= 20%) stood at 0.2%.

In the case of `OCCCO` [B1, 1,3-propanediol], the microbial growth percentage in test [2] (0 A, 0.125 B1 (weight %)) worked out at 77%; in test [2] (0 A, 0.25 B1 (weight %)), 62%; in test [2] (0 A, 0.5 B1 (weight %)), 50%; in test [2] (0 A, 1 B1 (weight %)), 36%; in test [2] (0 A, 2 B1 (weight %)), 11%. Also, the “% MIC of B1 alone” value in test [2] (setting [3]) came out at 2%.

(Values after patent US20210205192A1, “ANTIMICROBIAL MIXTURE CONTAINING 4-(3-ETHOXY-4-HYDROXYPHENYL)BUTAN-2-ONE AND A DIOL, AND COSMETIC COMPOSITION CONTAINING SAME” (L'OREAL, priority 2017, published 2021).)
